pIC50: −log10 of the molar value.
Molecular target: Gag-Pol polyprotein (Human immunodeficiency virus type 1 group M subtype B (isolate HXB2), UniProt P04585)
Assay: HIV-1 RT RNase H inhibitor potency, dose response, biochemical, probe assessment (AID 652)
Settings: pH 8; 23 °C

Compound | pIC50
C=CCn1c(SCC(=O)c2ccc(O)c(O)c2)nnc1-c1ccccc1OC [1-(3,4-dihydroxyphenyl)-2-[[5-(2-methoxyphenyl)-4-prop-2-enyl-1,2,4-triazol-3-yl]sulfanyl]ethanone] | 5.59
Cc1nn(CCc2nc(-c3ccco3)cs2)c2nc(O)cc(C(F)(F)F)c12 [SMR000060922] | 5.71
O=C(NCc1ccco1)c1cc2cc3ccc(Cl)cc3nc2o1 [7-chloranyl-N-(furan-2-ylmethyl)furo[2,3-b]quinoline-2-carboxamide] | 4.72
Cc1cccc(Nc2nnc(S)s2)c1C [5-(2,3-dimethylanilino)-3H-1,3,4-thiadiazole-2-thione] | 5.45
C=CCSc1nc2c(c(=O)[nH]c(=O)n2C)n1CC [7-ethyl-3-methyl-8-prop-2-enylsulfanylpurine-2,6-dione] | 5.43
Cc1ccccc1NC(=O)CSc1nc2c(c(-c3ccco3)c1C#N)CCCC2 [2-[[3-cyano-4-(2-furanyl)-5,6,7,8-tetrahydroquinolin-2-yl]thio]-N-(2-methylphenyl)acetamide] | 5.28
Cc1ccccc1NC(=O)c1c(O)n2c3c(cccc3c1=O)CC2 [6-Hydroxy-4-oxo-1,2-dihydro-4H-pyrrolo[3,2,1-ij]quinoline-5-carboxylic acid o-tolylamide] | 4.66
CCOC(=O)c1c(C)[nH]c(C(=O)CSc2nc3ccccc3o2)c1C [ethyl 5-[2-(1,3-benzoxazol-2-ylsulfanyl)ethanoyl]-2,4-dimethyl-1H-pyrrole-3-carboxylate] | 5.12
CCC1CCCCN1S(=O)(=O)c1ccc(S(=O)(=O)N2CCN(S(=O)(=O)CC)CC2)cc1 (stereo not given) [1-Ethanesulfonyl-4-[4-(2-ethyl-piperidine-1-sulfonyl)-benzenesulfonyl]-piperazine] | 4.91
c1ccc(Cc2nn3c(Cn4cnc5ccccc54)nnc3s2)cc1 [1-[(6-benzyl[1,2,4]triazolo[3,4-b][1,3,4]thiadiazol-3-yl)methyl]-1H-benzimidazole] | 5.66

— BindingDB's records for doi:10.7270/Q2H70D5W (University of Pittsburgh, 2007)
